Tests used:
Experiment in all cases: KINOMEscan (ScanMAX) kinase profiling
Format in all cases: binding
panel of 468 kinases [1] = molecular target: T1, panel of 468 kinases (Homo sapiens, UniProt Q8TDC3); conditions: BRSK1; 1 μM; read-out: % control
T1 construct: purchased KINOMEscan (ScanMAX) service
T1 sequence (Q8TDC3 1-778): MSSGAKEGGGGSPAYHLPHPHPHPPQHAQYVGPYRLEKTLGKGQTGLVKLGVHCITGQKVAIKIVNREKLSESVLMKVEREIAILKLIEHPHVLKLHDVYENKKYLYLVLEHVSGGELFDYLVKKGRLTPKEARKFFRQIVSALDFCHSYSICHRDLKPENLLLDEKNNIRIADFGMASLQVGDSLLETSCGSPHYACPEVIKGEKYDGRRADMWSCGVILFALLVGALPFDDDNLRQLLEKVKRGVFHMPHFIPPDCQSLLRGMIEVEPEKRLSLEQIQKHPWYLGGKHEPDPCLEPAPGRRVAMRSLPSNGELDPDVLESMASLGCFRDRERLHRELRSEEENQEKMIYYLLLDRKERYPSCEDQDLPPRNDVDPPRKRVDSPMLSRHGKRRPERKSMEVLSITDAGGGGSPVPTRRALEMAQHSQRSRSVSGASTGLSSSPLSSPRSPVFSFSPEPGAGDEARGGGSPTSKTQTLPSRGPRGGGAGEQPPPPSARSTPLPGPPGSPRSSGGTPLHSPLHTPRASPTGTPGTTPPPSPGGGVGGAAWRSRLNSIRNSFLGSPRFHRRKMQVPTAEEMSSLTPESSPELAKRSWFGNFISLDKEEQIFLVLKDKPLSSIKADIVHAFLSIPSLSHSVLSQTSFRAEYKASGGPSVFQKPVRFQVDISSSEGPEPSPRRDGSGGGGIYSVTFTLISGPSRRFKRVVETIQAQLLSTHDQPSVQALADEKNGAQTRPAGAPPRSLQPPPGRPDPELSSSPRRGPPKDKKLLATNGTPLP

panel of 468 kinases [2] = molecular target: T2, panel of 468 kinases (Homo sapiens, UniProt P20794); conditions: MAK; 1 μM; read-out: % control
T2 construct: purchased KINOMEscan (ScanMAX) service
T2 sequence (P20794 1-623): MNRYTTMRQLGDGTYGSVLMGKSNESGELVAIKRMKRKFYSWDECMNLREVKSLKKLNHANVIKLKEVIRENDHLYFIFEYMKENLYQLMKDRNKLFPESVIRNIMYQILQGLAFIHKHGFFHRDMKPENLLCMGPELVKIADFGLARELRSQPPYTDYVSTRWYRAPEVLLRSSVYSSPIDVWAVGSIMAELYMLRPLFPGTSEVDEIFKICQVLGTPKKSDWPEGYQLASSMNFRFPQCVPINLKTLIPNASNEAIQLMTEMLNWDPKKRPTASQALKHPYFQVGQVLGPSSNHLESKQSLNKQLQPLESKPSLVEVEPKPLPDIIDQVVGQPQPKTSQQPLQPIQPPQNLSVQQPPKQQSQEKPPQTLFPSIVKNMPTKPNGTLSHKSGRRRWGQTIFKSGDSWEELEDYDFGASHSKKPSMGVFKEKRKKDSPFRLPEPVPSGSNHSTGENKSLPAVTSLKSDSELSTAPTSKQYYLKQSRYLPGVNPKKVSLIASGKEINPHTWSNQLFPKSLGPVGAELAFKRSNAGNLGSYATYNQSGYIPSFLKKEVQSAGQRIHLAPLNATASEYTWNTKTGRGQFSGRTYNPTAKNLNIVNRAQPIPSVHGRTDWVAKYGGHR

panel of 468 kinases [3] = molecular target: T3, panel of 468 kinases (Homo sapiens, UniProt P36894); conditions: BMPR1A; 1 μM; read-out: % control
T3 construct: purchased KINOMEscan (ScanMAX) service

panel of 468 kinases [4] = molecular target: T4, panel of 468 kinases (Homo sapiens, UniProt O43318); conditions: TAK1; 1 μM; read-out: % control
T4 construct: purchased KINOMEscan (ScanMAX) service
T4 sequence (O43318 1-606): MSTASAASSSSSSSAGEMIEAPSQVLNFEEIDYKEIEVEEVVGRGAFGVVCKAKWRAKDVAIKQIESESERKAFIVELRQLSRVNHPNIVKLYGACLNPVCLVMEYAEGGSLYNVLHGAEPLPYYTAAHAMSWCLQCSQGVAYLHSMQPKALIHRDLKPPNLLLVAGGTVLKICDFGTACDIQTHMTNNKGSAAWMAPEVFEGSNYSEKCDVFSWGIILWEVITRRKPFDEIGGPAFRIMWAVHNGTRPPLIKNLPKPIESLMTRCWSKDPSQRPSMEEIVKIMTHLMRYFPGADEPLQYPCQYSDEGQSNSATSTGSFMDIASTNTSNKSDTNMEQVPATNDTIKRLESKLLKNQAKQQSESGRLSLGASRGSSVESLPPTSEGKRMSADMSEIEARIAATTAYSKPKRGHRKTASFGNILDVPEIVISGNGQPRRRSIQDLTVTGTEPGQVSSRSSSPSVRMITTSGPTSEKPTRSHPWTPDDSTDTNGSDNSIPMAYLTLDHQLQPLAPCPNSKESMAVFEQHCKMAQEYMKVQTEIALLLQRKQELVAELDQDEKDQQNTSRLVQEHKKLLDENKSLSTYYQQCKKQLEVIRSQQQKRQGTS

panel of 468 kinases [5] = molecular target: T5, panel of 468 kinases (Homo sapiens, UniProt P48736); conditions: PIK3CG; 1 μM; read-out: % control
T5 construct: purchased KINOMEscan (ScanMAX) service

panel of 468 kinases [6] = molecular target: T6, panel of 468 kinases (Homo sapiens, UniProt Q04912); conditions: MST1R; 1 μM; read-out: % control
T6 construct: purchased KINOMEscan (ScanMAX) service
T6 sequence (Q04912 25-1400): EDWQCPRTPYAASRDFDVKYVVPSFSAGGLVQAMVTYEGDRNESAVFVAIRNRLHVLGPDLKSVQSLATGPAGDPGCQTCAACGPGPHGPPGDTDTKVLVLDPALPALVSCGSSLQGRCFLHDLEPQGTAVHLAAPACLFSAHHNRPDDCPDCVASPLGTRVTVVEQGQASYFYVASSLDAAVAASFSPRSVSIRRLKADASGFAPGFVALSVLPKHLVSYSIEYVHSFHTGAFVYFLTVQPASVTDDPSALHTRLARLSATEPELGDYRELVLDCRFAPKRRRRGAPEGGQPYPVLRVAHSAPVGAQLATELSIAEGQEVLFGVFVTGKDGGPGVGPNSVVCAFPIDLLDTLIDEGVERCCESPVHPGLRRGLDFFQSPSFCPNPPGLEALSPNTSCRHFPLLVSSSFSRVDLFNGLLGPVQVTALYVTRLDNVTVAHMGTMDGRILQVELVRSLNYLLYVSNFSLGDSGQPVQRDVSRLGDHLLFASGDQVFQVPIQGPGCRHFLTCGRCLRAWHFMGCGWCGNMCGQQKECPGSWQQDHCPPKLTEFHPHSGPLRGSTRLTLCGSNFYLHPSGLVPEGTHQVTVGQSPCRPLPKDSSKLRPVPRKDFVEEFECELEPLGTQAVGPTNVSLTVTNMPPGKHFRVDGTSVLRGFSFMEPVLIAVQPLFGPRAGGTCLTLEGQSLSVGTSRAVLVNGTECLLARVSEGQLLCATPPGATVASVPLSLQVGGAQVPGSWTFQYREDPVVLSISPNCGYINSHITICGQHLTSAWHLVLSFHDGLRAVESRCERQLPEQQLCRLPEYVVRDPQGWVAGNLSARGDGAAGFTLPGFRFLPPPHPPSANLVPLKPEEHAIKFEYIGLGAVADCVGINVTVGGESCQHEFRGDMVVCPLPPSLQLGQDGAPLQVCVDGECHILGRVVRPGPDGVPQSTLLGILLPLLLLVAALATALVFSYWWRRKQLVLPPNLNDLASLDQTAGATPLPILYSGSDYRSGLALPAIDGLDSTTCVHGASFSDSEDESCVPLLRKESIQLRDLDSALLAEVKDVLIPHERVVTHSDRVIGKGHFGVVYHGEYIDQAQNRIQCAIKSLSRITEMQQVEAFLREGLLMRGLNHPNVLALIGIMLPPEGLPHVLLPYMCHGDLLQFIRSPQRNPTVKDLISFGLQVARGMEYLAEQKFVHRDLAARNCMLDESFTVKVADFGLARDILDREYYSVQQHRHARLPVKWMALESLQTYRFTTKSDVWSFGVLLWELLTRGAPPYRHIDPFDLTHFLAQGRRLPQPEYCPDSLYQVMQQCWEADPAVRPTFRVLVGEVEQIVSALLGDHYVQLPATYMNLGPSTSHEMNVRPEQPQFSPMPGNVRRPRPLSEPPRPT

panel of 468 kinases [7] = molecular target: T7, panel of 468 kinases (Homo sapiens, UniProt Q9BX84); conditions: TRPM6; 1 μM; read-out: % control
T7 construct: purchased KINOMEscan (ScanMAX) service
T7 sequence (Q9BX84 whole entry): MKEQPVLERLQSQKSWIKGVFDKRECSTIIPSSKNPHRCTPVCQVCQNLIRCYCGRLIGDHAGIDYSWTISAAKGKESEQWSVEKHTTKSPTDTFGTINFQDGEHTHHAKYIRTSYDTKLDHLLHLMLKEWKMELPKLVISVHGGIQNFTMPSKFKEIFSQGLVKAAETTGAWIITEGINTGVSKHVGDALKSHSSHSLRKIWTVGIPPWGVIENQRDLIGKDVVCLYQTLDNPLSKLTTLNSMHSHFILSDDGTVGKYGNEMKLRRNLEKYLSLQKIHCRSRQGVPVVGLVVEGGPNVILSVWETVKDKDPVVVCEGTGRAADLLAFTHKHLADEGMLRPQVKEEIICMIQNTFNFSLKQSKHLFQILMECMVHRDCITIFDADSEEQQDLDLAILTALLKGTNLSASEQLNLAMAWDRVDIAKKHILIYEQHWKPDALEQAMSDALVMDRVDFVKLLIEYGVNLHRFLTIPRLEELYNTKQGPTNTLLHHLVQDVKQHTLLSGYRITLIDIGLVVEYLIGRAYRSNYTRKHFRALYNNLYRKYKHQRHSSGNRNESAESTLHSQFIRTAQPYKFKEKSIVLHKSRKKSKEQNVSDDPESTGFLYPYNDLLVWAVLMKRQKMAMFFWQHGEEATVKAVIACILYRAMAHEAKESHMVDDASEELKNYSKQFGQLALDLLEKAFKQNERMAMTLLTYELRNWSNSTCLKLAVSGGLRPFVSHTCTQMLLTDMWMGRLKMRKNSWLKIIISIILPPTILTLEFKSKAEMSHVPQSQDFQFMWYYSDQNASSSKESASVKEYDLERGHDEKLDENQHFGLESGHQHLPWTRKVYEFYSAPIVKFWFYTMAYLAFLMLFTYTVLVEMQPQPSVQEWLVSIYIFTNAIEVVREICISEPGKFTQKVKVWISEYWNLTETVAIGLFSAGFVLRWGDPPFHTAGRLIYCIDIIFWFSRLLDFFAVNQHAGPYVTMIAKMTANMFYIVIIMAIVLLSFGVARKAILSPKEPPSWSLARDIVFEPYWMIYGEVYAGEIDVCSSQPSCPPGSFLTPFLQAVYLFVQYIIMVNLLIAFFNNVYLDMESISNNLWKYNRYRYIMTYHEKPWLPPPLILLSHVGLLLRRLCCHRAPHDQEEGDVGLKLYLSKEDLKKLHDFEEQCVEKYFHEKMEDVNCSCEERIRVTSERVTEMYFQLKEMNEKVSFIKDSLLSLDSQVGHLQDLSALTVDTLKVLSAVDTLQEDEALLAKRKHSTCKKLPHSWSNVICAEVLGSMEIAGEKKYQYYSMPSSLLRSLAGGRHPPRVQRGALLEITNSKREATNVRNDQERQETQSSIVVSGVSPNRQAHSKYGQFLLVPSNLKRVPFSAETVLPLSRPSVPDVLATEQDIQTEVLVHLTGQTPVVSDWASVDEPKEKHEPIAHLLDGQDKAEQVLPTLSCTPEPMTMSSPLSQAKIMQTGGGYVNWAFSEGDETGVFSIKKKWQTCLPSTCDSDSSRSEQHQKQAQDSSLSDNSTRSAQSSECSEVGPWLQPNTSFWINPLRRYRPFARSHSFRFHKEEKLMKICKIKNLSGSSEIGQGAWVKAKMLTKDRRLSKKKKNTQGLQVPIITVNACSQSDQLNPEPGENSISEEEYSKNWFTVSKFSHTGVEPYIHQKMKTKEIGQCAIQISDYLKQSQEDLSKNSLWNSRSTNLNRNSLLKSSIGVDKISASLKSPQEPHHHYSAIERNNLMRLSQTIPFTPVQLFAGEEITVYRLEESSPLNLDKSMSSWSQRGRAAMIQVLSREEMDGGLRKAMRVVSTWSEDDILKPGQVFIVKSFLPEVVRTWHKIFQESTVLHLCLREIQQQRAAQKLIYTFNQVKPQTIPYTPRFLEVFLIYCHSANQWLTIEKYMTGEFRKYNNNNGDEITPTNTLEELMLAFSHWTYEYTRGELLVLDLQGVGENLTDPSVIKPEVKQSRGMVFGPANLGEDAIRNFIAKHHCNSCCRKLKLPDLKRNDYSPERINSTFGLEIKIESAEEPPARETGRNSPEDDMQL

panel of 468 kinases [8] = molecular target: T8, panel of 468 kinases (Homo sapiens, UniProt Q13464); conditions: ROCK1; 1 μM; read-out: % control
T8 construct: purchased KINOMEscan (ScanMAX) service
T8 sequence (Q13464 whole entry): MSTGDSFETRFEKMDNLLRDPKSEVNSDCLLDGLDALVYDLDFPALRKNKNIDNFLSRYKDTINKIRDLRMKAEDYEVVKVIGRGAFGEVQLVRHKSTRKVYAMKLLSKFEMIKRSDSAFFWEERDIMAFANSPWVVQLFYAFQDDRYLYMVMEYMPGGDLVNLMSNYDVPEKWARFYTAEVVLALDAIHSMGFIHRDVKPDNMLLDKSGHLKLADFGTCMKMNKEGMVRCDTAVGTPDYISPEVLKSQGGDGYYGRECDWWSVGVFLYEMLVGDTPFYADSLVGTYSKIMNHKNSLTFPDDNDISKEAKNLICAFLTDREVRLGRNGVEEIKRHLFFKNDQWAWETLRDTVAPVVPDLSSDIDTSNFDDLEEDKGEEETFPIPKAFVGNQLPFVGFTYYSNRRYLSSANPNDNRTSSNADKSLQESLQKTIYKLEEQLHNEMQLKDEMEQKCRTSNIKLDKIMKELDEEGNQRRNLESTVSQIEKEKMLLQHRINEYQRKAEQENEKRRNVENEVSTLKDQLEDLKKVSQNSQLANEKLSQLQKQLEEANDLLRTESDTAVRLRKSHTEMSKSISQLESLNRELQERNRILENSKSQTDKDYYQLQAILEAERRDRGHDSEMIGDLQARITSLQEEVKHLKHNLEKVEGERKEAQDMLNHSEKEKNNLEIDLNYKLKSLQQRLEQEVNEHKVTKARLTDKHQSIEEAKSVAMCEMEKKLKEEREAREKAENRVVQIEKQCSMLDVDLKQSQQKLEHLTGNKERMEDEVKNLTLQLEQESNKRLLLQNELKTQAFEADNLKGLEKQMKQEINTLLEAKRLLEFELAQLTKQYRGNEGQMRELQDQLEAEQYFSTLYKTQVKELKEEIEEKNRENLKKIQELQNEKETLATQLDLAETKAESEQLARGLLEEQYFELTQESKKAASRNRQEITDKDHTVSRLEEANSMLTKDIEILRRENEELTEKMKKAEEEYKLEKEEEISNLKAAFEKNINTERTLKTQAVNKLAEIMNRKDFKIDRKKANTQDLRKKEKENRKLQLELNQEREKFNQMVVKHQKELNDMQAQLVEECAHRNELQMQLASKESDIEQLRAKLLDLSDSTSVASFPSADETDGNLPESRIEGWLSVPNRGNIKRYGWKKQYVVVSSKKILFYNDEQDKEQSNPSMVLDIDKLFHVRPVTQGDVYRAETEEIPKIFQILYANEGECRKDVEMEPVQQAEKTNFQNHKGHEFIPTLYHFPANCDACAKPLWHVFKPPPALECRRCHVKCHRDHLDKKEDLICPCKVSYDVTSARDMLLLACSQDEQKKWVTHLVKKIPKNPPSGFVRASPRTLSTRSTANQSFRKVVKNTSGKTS

Row | SMILES | remaining binding at 1 µM (panel of 468 kinases [1]) [%] | remaining binding at 1 µM (panel of 468 kinases [2]) [%] | remaining binding at 1 µM (panel of 468 kinases [3]) [%] | remaining binding at 1 µM (panel of 468 kinases [4]) [%] | remaining binding at 1 µM (panel of 468 kinases [5]) [%] | remaining binding at 1 µM (panel of 468 kinases [6]) [%] | remaining binding at 1 µM (panel of 468 kinases [7]) [%] | remaining binding at 1 µM (panel of 468 kinases [8]) [%]
1 | CNc1nc(Nc2ccc(C(=O)N3CCC(N4CCOCC4)CC3)c3c2OCO3)nc2[nH]cc(Cl)c12 [Compound 75, (7-((5-chloro-4-(methylamino)-7H-pyrrolo[2,3-d]pyrimidin-2-yl)amino)benzo[d][1,3]dioxol-4-yl)(4-morpholinopiperidin-1-yl)methanone] | 100 | 100 | 85 | 29 | 100 | 100 | 85 | 35
2 | CNc1nc(Nc2ccc(S(=O)(=O)N3CCC(N4CCOCC4)CC3)cc2OC)nc2[nH]cc(Cl)c12 [Compound 12, 5-chloro-N2-(2-methoxy-4-((4-morpholinopiperidin-1-yl)sulfonyl)phenyl)-N4-methyl-7H-pyrrolo[2,3-d]pyrimidine-2,4-diamine] | 100 | 100 | 96 | 100 | 95 | 100 | 79 | 100
3 | CNc1nc(Nc2ccc(P3(=O)CCN(C4CCOCC4)CC3)cc2OC)nc2[nH]cc(Cl)c12 [Compound 77, 4-(4-((5-chloro-4-(methylamino)-7H-pyrrolo[2,3-d]pyrimidin-2-yl)amino)-3-methoxyphenyl)-1-(tetrahydro-2H-pyran-4-yl)-1,4-azaphosphinane 4-oxide] | 96 | 100 | 96 | 84 | 100 | 100 | 88 | 95
